Test results reported in publication PMC7883289, “Synthesis of Paeonol-Ozagrel Conjugate: Structure Characterization and In Vivo Anti-Ischemic Stroke potential” (Frontiers in Pharmacology, 2021).

What was measured:
[1] = system: middle cerebral artery occlusion (MCAO) rats; experiment: Measurement of infarct volume by TTC staining in MCAO rats; type: in vivo; conditions: 24 h after reperfusion, single iv dose: paeonol and OS 3 mg/kg, POC 4.5 mg/kg, n = 6
Protocol: Male Sprague Dawley (SD) rats weighing among 220 g-230 g (Anhui Medicine University, Hefei, China; certificate number: SCXK20190,003) were housed under ad libitum access to food and water with a standardized light-dark cycle condition (25 ± 2°C, 12-hour light/dark cycle). All the experimental protocols were performed in accordance with the Institutional Animal Care and Use Committee of Anhui University of Chinese Medicine (Animal ethics number: AHUCM-rats-2019001). We used the minimal number of study animals (n = 6 rats in each group for different experiments). The rats were fastened upon the operating table in a supine position after being anesthetized with 2% pelltobarbitalum natricum (50 mg/kg). After disinfection of the skin within close proximity of the operative region, the right common carotid artery (CCA), external carotid artery (ECA) and internal carotid artery (ICA) were exposed with blunt dissection. The CCA was temporarily ligated and the ECA were permanently ligated ([Liu et al., 2016]). A nylon monofilament surgical thread was introduced into the ICA to block the MCA when the blunted distal end met resistance. After 2 h of occlusion, reperfusion was accomplished to restore blood supply to the MCA area by removing the filament ([Li et al., 2009]; [Zhai et al., 2017]). […] Rats were split randomly into five groups, including the sham, model, paeonol, OS and POC group. After 2 h of reperfusion, the paeonol and OS groups received the drug by intravenous injection at a single dose of 3 mg/kg ([Imamura et al., 2003]; [Park et al., 2010]; [Gai et al., 2019]), which the doses of paeonol and OS uesd previously were benificial in rats and the dose of OS is within the clinical dose range. […] Cerebral infarction volume was determined using TTC staining. […] The infarction and total brain volume were quantified using ImageJ software. The infarct volume was calculated as a ratio of the infarcted tissue relative to the total area of the whole-brain coronal section ([Ye and Gao, 2008]; [Katayama et al., 2017]). […]

[2] = Pharmacokinetic study after intravenous injection, LC-MS/MS of plasma; type: in vivo; conditions: rat, rats, 4.5 mg/kg
Protocol: Six rats were given POC (4.5 mg/kg) by intravenous injection, then, an approximately 1.0 ml sample of blood was obtained from the fossa orbitalis vein of rats and placed into heparin–rinsed EP pipes according to a programmed schedule at 3, 5, 10, 20, 30, 45, 60, 120, and 240 min after dosing.
Plasma (80 μL) was mixed with glibenclamide (20 μL) as the internal standard, and then 900 μL of acetonitrile was used to precipitate the protein. All samples were vortex–mixed for 5 min, then centrifuged at 15,000 r/min for 10 min. Then, 800 μL of supernatant was measured, blowed dry by nitrogen, and reconstituted with 100 μL of acetonitrile.
The Thermo Fisher Scientific Hypersil GOLD column (2.1 mm × 100 mm, 1.9 μm) was used as the analytical column; it was maintained at 30°C with 1.0 mmol/L of ammonium acetate (A) and mathanol (B) as the mobile phase, using glibenclamide as the internal standard (IS). The gradient elution program was operated as follows: 0–1.5 min, 55% B–65% B; 1.5–2.5 min, 65% B–80% B; 2.5–3.0 min, 80% B–90% B; 3.0–4.0 min, 90% B; 4.0–4.5 min, 90% B–55% B; 4.5–6.0 min, 55% B. The sample injection volume was 5.0 μL, and the flow rate set at 0.2 ml/min.
Mass spectrometry was operated with multiple reaction monitoring (MRM) in a positive ionization mode. The ion pair of POC is m/z 377.1 and 163.0; the declustering voltage (DP) is 28 eV; and the collision energy (CE) is 30 eV. The ion pair of glibenclamide is m/z 494.1 and 169.0, and the DP is 65 eV, the CE is 50 eV.

- AUC(0-t) [2]: 264 ng·h/mL
- Cmax [2]: 465 ± 269 ng/mL
- clearance [2]: 277 ± 62.3 mL/min/kg
- half-life [2]: 53.5 ± 19.6 min
- MRT last ([2]; read-out: MRT0-t (converted)): 51.9 min
Compound: COc1ccc(C(C)=O)c(OC(=O)C=Cc2ccc(Cn3ccnc3)cc2)c1 [POC, paeonol-ozagrel conjugate]
- cerebral infarction volume percentage [1]: 11.77% ± 2.53
